Data reported in patent US20090320869A1, “METHODS FOR PREVENTING REVERSION OF RELAXED KERATINOUS FIBERS AND FOR RELAXING KERATINOUS FIBERS” (L'Oreal, S.A.,, priority 2003, published 2009).

Key:
Set-up in all cases: species or system human
[1] = Percent straightening / reversion of hair relaxed with 2.5% sodium hydroxide, D-xylose post-treatment and heat (Example 1); settings: for % Reversion / % Straightening: flat iron five strokes 130° C., 24 at 90% RH (25° C.)
Protocol: Virgin African-American (kinky) hair was processed and 2.5% sodium hydroxide for 20 min at room temperature. Next, the sodium hydroxide solution was washed off, the swatch was profusely rinsed with tepid water, and the treatment solution was applied for 5 min at room temperature. The treatment solutions included: water; 1% D-xylose; and 5% D-xylose. Next, the swatch was briefly rinsed to remove an excess of the treatment solution from the hair surface, blow-dried, and heat was applied in the form of five strokes with a flat iron (130° C.). The heat-treated swatch was rinsed with tepid water, air-dried at 50% RH (25° C.), and maintained for 24 at 90% RH (25° C.). The percent hair straightening (“% straightening”) was determined as follows: [formula] The percent reversion (“% reversion”)=100%−(% straightening)

[2] = Effect of D-xylose on hair relaxed with a commercial thioglycolate relaxer (Example 5); settings: for % Reversion / % Straightening: flat iron 30 sec 175° C., 1 h at 100% RH
Protocol: [formula] The percent reversion (“% reversion”)=100%−(% straightening) Virgin African-American (kinky) hair was processed with a commercial thioglycolate cream relaxer as follows. The thioglycolate cream relaxer was applied to a swatch of kinky hair for 15 min at room temperature (reduced hair). Next, the thioglycolate cream was washed off, the swatch was profusely rinsed with tepid water, and a hydrogen peroxide cream was applied for 5 min. The treatment solutions included: water and 5% D-xylose. The treatment solutions were applied either between the rinsing of the thioglycolate cream relaxer and the application of the hydrogen peroxide cream, or after the application of the hydrogen peroxide cream, respectively. The treatment solutions was applied for 5 min at room temperature. Next, the swatch was briefly rinsed to remove an excess of the treatment solution from the hair surface, blow-dried, and heat was applied in the form of a flat iron for 30 sec (175° C.). The heat-treated swatch was rinsed with tepid water, air-dried at 50% RH (25° C.), and maintained for 1 h at 100% RH (25° C.). The percent hair straightening was determined as in Example 1.

[3] = Percent straightening / reversion of hair relaxed with various concentrations of sodium hydroxide, D-xylose post-treatment and heat (Example 2); settings: for % Reversion / % Straightening: flat iron 1 min 130° C., 24 h at 90% RH
Protocol: [formula] The percent reversion (“% reversion”)=100%−(% straightening) Virgin African-American (kinky) hair was processed with different concentrations of sodium hydroxide for 20 min at room temperature: 1.0%, 1.5%, 2.0%, and 2.5% NaOH, respectively. Next, the sodium hydroxide solution was washed off, the swatch was profusely rinsed with tepid water, and the treatment solution was applied for 5 min at room temperature. The treatment solutions included water and 5% D-xylose. Next, the swatch was briefly rinsed to remove an excess of the treatment solution from the hair surface, blow-dried, and heat was applied in the form of a flat iron for 1 min (130° C.). The heat-treated swatch was rinsed with tepid water, air-dried at 50% RH (25° C.), and maintained for 24 h at 90% RH (25° C.). The percent hair straightening was determined as in Example 1.

[4] = Effect of D-xylose concentration on hair relaxed with a commercial alkali relaxer (Example 4); settings: for % Reversion / % Straightening: flat iron 1 min 175° C., 1 h at 100% RH
Protocol: [formula] The percent reversion (“% reversion”)=100%−(% straightening) Virgin African-American (kinky) hair was processed with an alkali relaxer as follows. The commercial cream relaxer was applied to a swatch of hair for 10 min at room temperature. Next, the cream was washed off, the swatch was profusely rinsed with tepid water, and the treatment solution was applied for 5 min. The treatment solutions included water; 1% D-xylose; 3% D-xylose; and 5% D-xylose. Next, the swatch was briefly rinsed to remove an excess of the treatment solution from the hair surface, blow-dried, and heat was applied in the form of a flat iron for 1 min (175° C.). The heat-treated swatch was rinsed with tepid water, air-dried at 50% RH (25° C.), and maintained for 1 h at 100% RH (25° C.). The percent hair straightening was determined as in Example 1.

[5] = Effect of pH of D-xylose solutions on hair relaxed with 2.0% sodium hydroxide (Example 3); settings: for % Reversion / % Straightening: 2.0% NaOH + 5% D-Xylose, flat iron 1 min 130° C., 24 h at 90% RH
Protocol: [formula] The percent reversion (“% reversion”)=100%−(% straightening) Virgin African-American (kinky) hair was processed with 2.0% sodium hydroxide for 20 min at room. Next, the sodium hydroxide solution was washed off, the swatch was profusely rinsed with tepid water, and the treatment solution was applied for 10 min at 45° C. The treatment solutions included: buffer solution, pH 2.0; buffer solution, pH 6.0; buffer solution, pH 10.0; 5% D-xylose, pH 2.0; 5% D-xylose, pH 6.5; and 5% D-xylose, pH 10. The solutions were buffered using phosphoric acid and sodium hydroxide. Next, the swatch was briefly rinsed to remove an excess of the treatment solution from the hair surface, blow-dried, and heat was applied in the form of a flat iron for 1 min. (130° C.). The heat-treated swatch was rinsed with tepid water, air-dried at 50% RH (25° C.), and maintained for 24 h at 90% RH (25° C.). The percent hair straightening was determined as in Example 1.

[6] = 2.5% NaOH 20 min + 1% D-Xylose 5 min
[7] = 2.5% NaOH 20 min + 5% D-Xylose 5 min
[8] = thioglycolate reduced hair + 5% D-Xylose, then hydrogen peroxide
[9] = thioglycolate reduced hair + hydrogen peroxide, then 5% D-Xylose
[10] = commercial alkali cream relaxer 10 min + 1% D-Xylose 5 min
[11] = commercial alkali cream relaxer 10 min + 3% D-Xylose 5 min
[12] = commercial alkali cream relaxer 10 min + 5% D-Xylose 5 min

O=C[C@H](O)[C@@H](O)[C@H](O)CO [D-Xylose, D-xylose]
% Reversion [1, 6]: 7.2%
% Straightening [1, 6]: 92.8%
% Reversion [1, 7]: 0%
% Straightening [1, 7]: 100%
curl reversion in relaxed kinky hair (in words) ([1]; post-treatment with a D-xylose solution, hair relaxed with 2.5% NaOH): prevented curl reversion
reversion of relaxed hair (in words) ([2]; post-treatment with a D-xylose solution, thioglycolate hair relaxer): prevented reversion
% Reversion [2, 8]: 0.00%
% Straightening [2, 8]: 100%
% Reversion [2, 9]: 14.0%
% Straightening [2, 9]: 86.0%
% Reversion ([3]; 1.0% NaOH + 5% D-Xylose): 42.9%
% Straightening ([3]; 1.0% NaOH + 5% D-Xylose): 57.1%
% Reversion ([3]; 1.5% NaOH + 5% D-Xylose): 21.4%
% Straightening ([3]; 1.5% NaOH + 5% D-Xylose): 78.6%
% Reversion ([3]; 2.0% NaOH + 5% D-Xylose): 0%
% Straightening ([3]; 2.0% NaOH + 5% D-Xylose): 100%
% Reversion ([3]; 2.5% NaOH + 5% D-Xylose): 0%
% Straightening ([3]; 2.5% NaOH + 5% D-Xylose): 100%
curl reversion in relaxed kinky hair (in words) ([3]; post-treatment with a D-xylose solution vs water, 1.0-2.5% NaOH): prevented curl reversion in the relaxed kinky hair better than post-treatment with water
% Reversion [4, 10]: 30.9%
% Straightening [4, 10]: 69.1%
% Reversion [4, 11]: 24.0%
% Straightening [4, 11]: 76.0%
% Reversion [4, 12]: 22.0%
% Straightening [4, 12]: 78.0%
reversion of relaxed hair (in words) ([4]; post-treatment with various concentrations of D-xylose vs water, commercial alkali relaxer): prevented reversion of the relaxed hair
% Reversion ([5]; pH 2.0, 10 min at 45° C.): 20.0%
% Straightening ([5]; pH 2.0, 10 min at 45° C.): 80.0%
% Reversion ([5]; pH 6.5, 10 min at 45° C.): 10.0%
% Straightening ([5]; pH 6.5, 10 min at 45° C.): 90.0%
% Reversion ([5]; pH 10.0, 10 min at 45° C.): 0.00%
% Straightening ([5]; pH 10.0, 10 min at 45° C.): 100%
reversion of relaxed hair (in words) ([5]; post-treatment with a D-Xylose solution vs buffer solution at various pH values): prevented reversion of the relaxed hair better than post-treatment with a buffer solution
